This data set in a line: RP, Thermo Scientific Acclaim RSLC 120 C18, 100 × 2.1 mm, 2.2 µm, 30 °C, 0.2 mL/min, estimated dead time 1.1 min; A: 90% water + 10% methanol + 0.01% formic acid + 5 mM ammonium formate, pH 3.61; B: methanol + 0.01% formic acid + 5 mM ammonium formate, pH 3.61; gradient (min/%B) 0/1 1/1 2/39 13/99.9 15/99.9 15.1/1 20.1/1. Conditions: stereoisomer not certain.
With `COc1ccc2cccc(CCNC(C)=O)c2c1` [Agomelatine], the LC retention time is 8.68 min.

Take `COC(=O)COc1cc(Cl)c(Cl)cc1Cl` [2.4.5-T-methylester]: the LC retention time is 10.8 min.

As to `O=C1CN=C(c2ccccc2Cl)c2cc(Cl)ccc2N1` [Delorazepam], the LC retention time was 8.81 min.

As to `CCOP(=S)(OCC)Oc1ccc([N+](=O)[O-])cc1` [Parathion], the LC retention time is 10.7 min.

For `CC(=O)Oc1ccc2c(CCN(C(C)C)C(C)C)c[nH]c2c1` [4-AcO-DIPT], the LC retention time is 4.88 min.

`O=C(Nc1ccc([N+](=O)[O-])cc1Cl)c1cc(Cl)ccc1O` [Niclosamide]: the LC retention time was 12.6 min.

Regarding `CCCCCn1cc(C(=O)NCc2ccccc2)c2ccccc21` [SDB-006], the LC retention time is 11.2 min.

`CN1CCCCC1Cn1cc(C(=O)c2cccc3ccccc23)c2ccccc21` (configuration not stated) [AM-1220]: the LC retention time is 8.09 min.

Regarding `COc1ccc(C(=O)c2cn(CCCCCO)c3ccccc23)cc1` [RCS-4-M-5-OH-Pentyl], the LC retention time is 9.18 min.

As to `CCOP(=S)(OCC)OP(=S)(OCC)OCC` [Sulfotepp], the LC retention time was 10.8 min.

Take `CC(=O)OC1CN2CCC1CC2` (configuration not stated) [Aceclidine]: the LC retention time is 4.87 min.

Take `COC(=O)NS(=O)(=O)c1ccc(N)cc1` [Asulam]: the LC retention time was 3.41 min.

Consider `COCCN(C(=O)CS(=O)(=O)O)c1c(C)cccc1C` [Dimethachlor-ESA], for which the LC retention time was 5.54 min.

Consider `CCCOc1ccc(C(=O)CCN2CCCCC2)cc1` [Propipocaine], for which the LC retention time is 6.24 min.

`CCCc1nn(C)c2c(=O)[nH]c(-c3cc(S(=O)(=O)N4CC(C)NC(C)C4)ccc3OCC)nc12` (configuration not stated) [Sildenafil-Dimethyl]: the LC retention time is 7.6 min.

For the compound `CCN(CC)C(=O)c1cccnc1` [Nikethamide], the LC retention time is 4.64 min.

Regarding `CC12CCC3c4ccc(O)cc4CCC3C1CCC2O` (configuration not stated), the LC retention time is 12 min.

For `COc1ccc(CCN)cc1OC` [DMPEA], the LC retention time was 3.53 min.

`CCN1CC2(COC)C(O)CC(OC)C34C5CC6(O)C(OC)C(O)C(OC(C)=O)(C5C6OC(=O)c5ccccc5)C(C(OC)C23)C14` (configuration not stated) [Aconitine]: the LC retention time was 7.09 min.

`COc1cccc(N(C)C(=S)Oc2cccc(C(C)(C)C)c2)n1` [Pyributicarb]: the LC retention time was 12.5 min.

For `Cc1ccc(N=CN(C)C=Nc2ccc(C)cc2C)c(C)c1` [Amitraz], the LC retention time was 13.3 min.

For `COc1ccc2c3c1OC1CC(O)C=CC31CCN(C)C2` (configuration not stated) [Galantamine], the LC retention time is 2.99 min.

Take `COC(=O)C(c1ccccc1)C1CCCCN1` (configuration not stated) [Methylphenidate]: the LC retention time was 4.96 min.

As to `O=c1[nH]c2ccccc2n1CCN1CCN(c2cccc(C(F)(F)F)c2)CC1` [Flibanserin], the LC retention time was 9.99 min.

On to `CCCN(CCOc1c(Cl)cc(Cl)cc1Cl)C(=O)n1ccnc1` [Prochloraz], for which the LC retention time was 11.2 min.

As for `COCCN(C(=O)CCl)c1c(C)cccc1C` [Dimethachlor], the LC retention time was 8.58 min.

For the compound `Cc1nc(N(C)C)nc(OC(=O)N(C)C)c1C` [Pirimicarb], the LC retention time is 7.77 min.

Consider `CC1(C)OC2CC3C4CC(F)C5=CC(=O)C=CC5(C)C4(F)C(O)CC3(C)C2(C(=O)CO)O1` (configuration not stated) [Fluocinolone acetonide], for which the LC retention time is 8.73 min.

Consider `CCOCCc1ccc(OCCNc2ncnc(CC)c2Cl)c(C)c1C` [Pyrimidifen], for which the LC retention time was 12.5 min.

As to `CN1CCC23c4c5ccc(O)c4OC2CCCC3C1C5` (configuration not stated) [Desomorphine], the LC retention time is 3.84 min.

Consider `O=C1CN=C(c2ccccc2)c2cc(Cl)ccc2N1` [Diazepam-Nor], for which the LC retention time is 9.23 min.

With `CCN1CCCC1CNC(=O)c1c(OC)ccc(Br)c1OC` (configuration not stated) [Remoxipride], the LC retention time was 5.06 min.
